Laboratory results: US9783505B2, “Substituted diaminopyrimidyl compounds, compositions thereof, and methods of treatment therewith” (Signal Pharmaceuticals, LLC, priority 2013, dated 2017)

Biological target: T1, His-PKC-theta (Homo sapiens, UniProt Q04759)
T1 construct: His; purchased Invitrogen
Experiment: PKC-theta Assay (384-well time resolved fluorescence, IMAP TR-FRET)
Type: biochemical
Settings: Table 2; read-out: Act. Level (IC50 in the PKC-theta Assay)
Description: PKC-theta Assay. A 384-well time resolved fluorescence assay was used to monitor PKC-theta activity. The PKC-theta assay was run in the following assay buffer: 50 mM HEPES pH 7.6, 10 mM MgCl2, 1 mM DTT, 0.01% Triton X-100, 0.01% BSA and 0.1 mM EDTA. To initiate the reaction, 200 nM of Fam-labeled S6-derived peptide (Molecular Devices) and 10 μM of ATP were mixed with 142 pM of His-PKC-theta (Invitrogen) for a total assay volume of 25 μL in each well. The assay was incubated at room temperature for 2 hours and terminated using a 60 μL/well mixture of Detection Binding Solution: 70% IMAP Progressive Binding Buffer A, 30% IMAP Progressive Binding Buffer B, 1:600 Progressive Binding Reagent, and 1:400 TR-FRET Tb Donor (Molecular Devices). The assay plates were then incubated overnight at room temperature and read on a Perkin-Elmer Envision Reader.

T1 sequence (Q04759 whole entry): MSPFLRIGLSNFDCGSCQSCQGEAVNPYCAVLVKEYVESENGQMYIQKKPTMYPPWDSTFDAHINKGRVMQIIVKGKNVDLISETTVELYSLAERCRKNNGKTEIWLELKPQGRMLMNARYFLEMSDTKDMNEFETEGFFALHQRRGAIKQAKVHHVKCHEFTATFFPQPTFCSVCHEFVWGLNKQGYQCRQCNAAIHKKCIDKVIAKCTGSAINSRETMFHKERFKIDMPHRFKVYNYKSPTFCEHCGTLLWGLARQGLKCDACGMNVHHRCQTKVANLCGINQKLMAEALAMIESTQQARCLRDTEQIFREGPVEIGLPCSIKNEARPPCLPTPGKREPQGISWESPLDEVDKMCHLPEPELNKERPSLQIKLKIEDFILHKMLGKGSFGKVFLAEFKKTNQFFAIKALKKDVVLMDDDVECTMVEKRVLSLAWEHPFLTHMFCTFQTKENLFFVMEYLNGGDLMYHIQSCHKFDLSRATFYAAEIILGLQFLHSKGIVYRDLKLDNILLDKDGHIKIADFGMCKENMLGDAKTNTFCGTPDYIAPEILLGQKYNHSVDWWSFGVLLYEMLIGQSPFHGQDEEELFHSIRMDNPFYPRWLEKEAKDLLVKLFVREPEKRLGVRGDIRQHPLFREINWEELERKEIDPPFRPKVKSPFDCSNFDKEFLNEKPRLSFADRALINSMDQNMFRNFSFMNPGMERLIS

| SMILES | IC50 |
| --- | --- |
| CC1(C)[C@@H](O)C[C@H]1Nc1nc(NCCc2ccc(-n3cccn3)cc2)ncc1C#N [Cmpd 48] | < 100 nM |
| N#Cc1cnc(NCCc2cccc(Cl)c2)nc1N[C@H]1CC[C@H](O)CC1 [Cmpd 69] | 800 to 2000 nM |
| COc1cccc(CCNc2ncc(C#N)c(N[C@@H]3C[C@H](O)C3(C)C)n2)c1OC [Cmpd 105] | 800 to 2000 nM |
| CC1(C)[C@@H](O)C[C@H]1Nc1nc(NCC(F)(F)c2ccccc2)ncc1C#N [Cmpd 43] | 100 to 800 nM |
| CC1(C)C[C@H](Nc2nc(NCCc3cccc(Cl)c3F)ncc2C#N)CC[C@@H]1O [Cmpd 87] | < 100 nM |
| CC1(C)C[C@H](Nc2nc(NCCc3cccc(Cl)c3)ncc2C#N)CC[C@@H]1O [Cmpd 32] | < 100 nM |
| N#Cc1cnc(NCCc2ccc(F)cc2)nc1N[C@H]1CC[C@@H](C(N)=O)CC1 [Cmpd 91] | 100 to 800 nM |
| Cc1c(CO)cccc1Nc1nc(NCc2cnccc2C(F)(F)F)ncc1C#N [Cmpd 7] | 100 to 800 nM |
| COc1ccccc1CCNc1ncc(C#N)c(N[C@@H]2CC[C@H](O)C(C)(C)C2)n1 [Cmpd 30] | 100 to 800 nM |
| N#Cc1cnc(NCCc2cccc(Cl)c2)nc1N[C@H]1C[C@H](O)C1 [Cmpd 71] | 2000 to 10000 nM |
| C[C@H](CNc1ncc(C#N)c(N[C@@H]2C[C@H](O)C2(C)C)n1)c1ccccc1 [Cmpd 42] | 100 to 800 nM |
| N#Cc1cnc(NCc2ccccc2)nc1N[C@H]1CC[C@@H](O)CC1 [Cmpd 28] | 2000 to 10000 nM |
| COc1ccc(CCNc2ncc(C#N)c(N[C@@H]3CC[C@H](O)C(C)(C)C3)n2)cc1OC [Cmpd 36] | 100 to 800 nM |
| COc1ccccc1CCNc1ncc(C#N)c(N[C@@H]2C[C@H](O)C2(C)C)n1 [Cmpd 85] | 100 to 800 nM |
| CC1(C)C[C@H](Nc2nc(NCCc3ccc(S(C)(=O)=O)cc3)ncc2C#N)CC[C@@H]1O [Cmpd 63] | 100 to 800 nM |
| CC1(C)C[C@H](Nc2nc(NCC(=O)c3ccc(Cl)cc3)ncc2C#N)CC[C@@H]1O [Cmpd 81] | 100 to 800 nM |
| CN(C)C(=O)c1cccc(CCNc2ncc(C#N)c(N[C@@H]3CC[C@H](O)C(C)(C)C3)n2)c1 [Cmpd 61] | 2000 to 10000 nM |
| CN1CCN(c2ccccc2CNc2ncc(C#N)c(N[C@H]3CC[C@@H](O)CC3)n2)CC1 [Cmpd 27] | 2000 to 10000 nM |
| CC1(C)C[C@H](Nc2nc(NCCc3ccc(F)c(Cl)c3)ncc2C#N)CC[C@@H]1O [Cmpd 88] | < 100 nM |
| N#Cc1cnc(NCc2ccccc2Oc2ccc(F)cc2)nc1N[C@H]1CC[C@@H](O)CC1 [Cmpd 12] | 800 to 2000 nM |
| COc1cc(CCNc2ncc(C#N)c(N[C@@H]3CC[C@H](O)C(C)(C)C3)n2)ccc1O [Cmpd 95] | 100 to 800 nM |
| CC1(C)[C@H](CO)C[C@H]1Nc1nc(NCCc2cccc(Cl)c2)ncc1C#N [Cmpd 76] | < 100 nM |
| CC1(C)[C@H](CO)C[C@@H]1Nc1nc(NCCc2cccc(Cl)c2)ncc1C#N [Cmpd 75] | 800 to 2000 nM |
| CC1(C)[C@@H](O)C[C@H]1Nc1nc(NCCc2ccc(Cl)cc2Cl)ncc1C#N [Cmpd 106] | 100 to 800 nM |

Further lines, results first:

| IC50 | SMILES |
| --- | --- |
| 800 to 2000 nM | CC1(C)[C@H](N)C[C@H]1Nc1nc(NCCc2cccc(Cl)c2)ncc1C#N [Cmpd 158] |
| 100 to 800 nM | CC(F)(F)COc1cccc(CCNc2ncc(C#N)c(N[C@@H]3CC[C@H](O)C(C)(C)C3)n2)c1 [Cmpd 155] |
| 100 to 800 nM | CC1(C)[C@@H](O)C[C@H]1Nc1nc(NCCc2cc(C(F)(F)F)cc(C(F)(F)F)c2)ncc1C#N [Cmpd 125] |
| 100 to 800 nM | CC1(C)C[C@H](Nc2nc(NCCc3ccc(C#N)cc3)ncc2C(F)(F)F)CC[C@@H]1O [Cmpd 161] |
| < 100 nM | CC1(C)C[C@H](Nc2nc(NCCc3ccc(-n4cccn4)c(Cl)c3)ncc2C#N)CC[C@@H]1O [Cmpd 181] |
| 100 to 800 nM | CN(C)c1ccc(CCNc2ncc(C#N)c(N[C@@H]3CC[C@H](O)C(C)(C)C3)n2)cc1 [Cmpd 129] |
| 100 to 800 nM | CC1(C)[C@@H](O)C[C@H]1Nc1nc(NCCc2ccccc2)ncc1C#N [Cmpd 149] |
| 100 to 800 nM | CC1(C)C[C@H](Nc2nc(NCCc3ccccc3OC(F)F)ncc2C#N)CC[C@@H]1O [Cmpd 132] |
| < 100 nM | CC1(C)C[C@H](Nc2nc(NCCc3ccccc3)ncc2C#N)CC[C@@H]1O [Cmpd 150] |
| 800 to 2000 nM | Cc1cc(C)n(-c2ccc(CCNc3ncc(C#N)c(N[C@@H]4C[C@H](O)C4(C)C)n3)cc2)n1 [Cmpd 121] |
| 100 to 800 nM | CC1(C)C[C@H](Nc2nc(NCCc3ccc(S(=O)(=O)N4CCCCC4)cc3)ncc2C#N)CC[C@@H]1O [Cmpd 178] |
| 100 to 800 nM | CC1(C)[C@@H](O)C[C@H]1Nc1nc(NCCc2ccc(C#N)c(Br)c2)ncc1C#N [Cmpd 145] |
| < 100 nM | CC1(C)C[C@H](Nc2nc(NCCc3ccc(C#N)c(Br)c3)ncc2C#N)CC[C@@H]1O [Cmpd 146] |
| 100 to 800 nM | CC1(C)[C@@H](O)C[C@H]1Nc1nc(NCCc2ccc(-c3ccc(F)cc3)cc2)ncc1C#N [Cmpd 120] |
| 800 to 2000 nM | CC1(C)[C@@H](O)C[C@H]1Nc1nc(NCCc2ccc(CN3CCCC3=O)cc2)ncc1C#N [Cmpd 123] |
| 2000 to 10000 nM | CC1(C)[C@H](Nc2nc(NCCc3cccc(Cl)c3)ncc2C#N)C[C@H]1C(N)=O [Cmpd 163] |
| 100 to 800 nM | CC1(C)[C@@H](O)C[C@H]1Nc1nc(NCCc2cccc3ccccc23)ncc1C#N [Cmpd 128] |
| 100 to 800 nM | COc1cc(CCNc2ncc(C#N)c(N[C@@H]3CC[C@H](O)C(C)(C)C3)n2)ccc1C#N [Cmpd 137] |
| 100 to 800 nM | CC1(C)C[C@H](Nc2nc(NCCc3ccc(S(=O)(=O)N4CCOCC4)cc3)ncc2C#N)CC[C@@H]1O [Cmpd 177] |

Same assay, conditions: read-out: Act. Level (IC50 in the PKC-theta Assay)

| SMILES | IC50 |
| --- | --- |
| O[C@H]1C[C@@H](Nc2nc(NCc3cnccc3C(F)(F)F)ncc2C(F)(F)F)C1 [Cmpd 95] | 100 to 800 nM |
| CCOc1ncncc1CNc1ncc(C(F)(F)F)c(N[C@@H]2C[C@H](O)C2(C)C)n1 [Cmpd 57] | < 100 nM |
| CC(F)(F)COc1ncncc1CNc1ncc(C#N)c(N[C@H]2C[C@@H](O)C2(C)C)n1 [Cmpd 99] | 100 to 800 nM |
| Cc1ccc(Oc2ncncc2CNc2ncc(C(F)(F)F)c(N[C@H]3CC[C@@](C)(O)CC3)n2)cc1 [Cmpd 31] | < 100 nM |
| CC1(C)[C@H](O)C[C@@H]1Nc1nc(NCc2cncnc2OCCC(F)(F)F)ncc1C(F)(F)F [Cmpd 83] | < 100 nM |
| CC1(C)[C@@H](CO)C[C@H]1Nc1nc(NCc2c[n+]([O-])ccc2C(F)(F)F)ncc1C(F)(F)F [Cmpd 48] | < 100 nM |
| CC(C)(O)[C@H]1CC[C@H](Nc2nc(NCc3cnccc3C(F)(F)F)ncc2C#N)CC1 [Cmpd 101] | 100 to 800 nM |
| CC(C)c1ncncc1CNc1ncc(C#N)c(N[C@@H]2C[C@H](O)C2(C)C)n1 [Cmpd 35] | < 100 nM |
| CC1(C)C[C@H](Nc2nc(NCc3cncnc3-c3ccc(F)cc3)ncc2C(F)(F)F)CC[C@@H]1O [Cmpd 44] | < 100 nM |
| CC1(C)C[C@H](Nc2nc(NCc3c[n+]([O-])ccc3C(F)(F)F)ncc2C#N)CC[C@@H]1O [Cmpd 42] | < 100 nM |
| CC1(C)[C@@H](CO)C[C@H]1Nc1nc(NCc2c[n+]([O-])ccc2C(F)(F)F)ncc1C#N [Cmpd 53] | < 100 nM |
| O[C@H]1CC[C@@H](Nc2nc(NCc3cncnc3-c3ccccc3)ncc2C(F)(F)F)CC1 [Cmpd 76] | < 100 nM |
| CC1(C)C(Nc2nc(NCc3cncnc3OCCC(F)(F)F)ncc2C#N)C[C@H]1O (stereo partly drawn) [Cmpd 77] | < 100 nM |
| C[C@]1(O)CC[C@@H](Nc2nc(NCc3cncnc3C(F)(F)F)ncc2C#N)CC1 [Cmpd 106] | 100 to 800 nM |
| C[C@]1(O)CC[C@@H](Nc2nc(NCc3cncnc3-c3ccccc3)ncc2C(F)(F)F)CC1 [Cmpd 80] | < 100 nM |
| CC(C)(F)c1ncncc1CNc1ncc(C#N)c(N[C@H]2CC[C@@](C)(O)CC2)n1 [Cmpd 50] | < 100 nM |
| CC1(C)[C@H](CO)C[C@H]1Nc1nc(NCc2cnccc2C(F)(F)F)ncc1C(F)(F)F [Cmpd 66] | < 100 nM |

Continued, values first:

| IC50 | SMILES |
| --- | --- |
| < 100 nM | COc1ccc2c(CCNc3ncc(C#N)c(N[C@@H]4CC[C@H](O)C(C)(C)C4)n3)c[nH]c2c1 [Cmpd 183] |
| 100 to 800 nM | CC(C)c1ncncc1CNc1ncc(C#N)c(N[C@H]2C[C@@H](O)C2(C)C)n1 [Cmpd 119] |
| 100 to 800 nM | CC1(C)[C@@H](O)C[C@H]1Nc1nc(NCCc2cccs2)ncc1C#N [Cmpd 189] |
| 100 to 800 nM | CCc1ncncc1CNc1ncc(C#N)c(NC2CC(C)(O)C2(C)C)n1 (stereo not drawn) [Cmpd 135] |
| < 100 nM | CCc1ccc2c(c1)C(CCNc1ncc(C#N)c(N[C@@H]3C[C@H](O)C3(C)C)n1)C(=O)N2 (stereo partly drawn) [Cmpd 261] |
| < 100 nM | CC1(C)C[C@H](Nc2nc(NCCc3c[nH]c4c(F)cccc34)ncc2C#N)CC[C@@H]1O [Cmpd 182] |
| 100 to 800 nM | CC1(C)C[C@H](Nc2nc(NCCc3c[nH]c4ccc(F)cc34)ncc2C#N)CC[C@@H]1O [Cmpd 181] |
| 100 to 800 nM | CCc1ncncc1CNc1ncc(C#N)c(N[C@H]2C[C@@H](O)C2(C)C)n1 [Cmpd 123] |
| < 100 nM | CCc1ccc2c(c1)C(CCNc1ncc(C#N)c(N[C@H]3CC[C@@H](C(N)=O)CC3)n1)C(=O)N2 (stereo partly drawn) [Cmpd 180] |
| 100 to 800 nM | CC1(C)C[C@H](Nc2nc(NCCc3cccs3)ncc2C#N)CC[C@@H]1O [Cmpd 185] |
| 2000 to 10000 nM | Cc1cc(C)n(CCNc2ncc(C#N)c(N[C@@H]3CC[C@H](O)C(C)(C)C3)n2)n1 [Cmpd 198] |
| 100 to 800 nM | CC1(C)[C@@H](Nc2nc(NCc3cncnc3-c3ccc(F)cc3)ncc2C#N)C[C@@H]1O [Cmpd 111] |
| 100 to 800 nM | N#Cc1cnc(NCCc2c[nH]c3ccccc23)nc1N[C@H]1CC[C@@H](O)CC1 [Cmpd 154] |
| 2000 to 10000 nM | N#Cc1cnc(NCCc2ncccc2C(F)(F)F)nc1N[C@H]1CC[C@@H](O)CC1 [Cmpd 151] |
| 2000 to 10000 nM | N#Cc1ccc2[nH]cc(CCNc3ncc(C#N)c(N[C@H]4CC[C@@H](O)CC4)n3)c2c1 [Cmpd 163] |
